# Values joined by “and” are separate entries in the source; they are usually repeats but may differ in a detail not shown here. Identical values can stand only once.
# Legend:
# Experiment in all cases: Kinase inhibitor specificity profiling (Reaction Biology Corporation)
# Format in all cases: biochemical
# Parameters in all cases: % Enzyme Activity (relative to DMSO controls): concentration or dose not given beside the values
# [1] = molecular target: T1, panel of 370 protein kinases (Homo sapiens, UniProt P54762); conditions: 2 h, kinase EPHB1; read-out: % Enzyme Activity (relative to DMSO controls)
# T1 construct: purchased Reaction Biology Corporation (assay service)
# [2] = molecular target: T2, panel of 370 protein kinases (Homo sapiens, UniProt O43353); conditions: 2 h, kinase RIPK2; read-out: % Enzyme Activity (relative to DMSO controls)
# T2 construct: purchased Reaction Biology Corporation (assay service)
# [3] = molecular target: T3, panel of 370 protein kinases (Homo sapiens, UniProt P53779); conditions: kinase JNK3
# T3 construct: purchased Reaction Biology Corporation (assay service)
# T3 sequence (P53779 whole entry): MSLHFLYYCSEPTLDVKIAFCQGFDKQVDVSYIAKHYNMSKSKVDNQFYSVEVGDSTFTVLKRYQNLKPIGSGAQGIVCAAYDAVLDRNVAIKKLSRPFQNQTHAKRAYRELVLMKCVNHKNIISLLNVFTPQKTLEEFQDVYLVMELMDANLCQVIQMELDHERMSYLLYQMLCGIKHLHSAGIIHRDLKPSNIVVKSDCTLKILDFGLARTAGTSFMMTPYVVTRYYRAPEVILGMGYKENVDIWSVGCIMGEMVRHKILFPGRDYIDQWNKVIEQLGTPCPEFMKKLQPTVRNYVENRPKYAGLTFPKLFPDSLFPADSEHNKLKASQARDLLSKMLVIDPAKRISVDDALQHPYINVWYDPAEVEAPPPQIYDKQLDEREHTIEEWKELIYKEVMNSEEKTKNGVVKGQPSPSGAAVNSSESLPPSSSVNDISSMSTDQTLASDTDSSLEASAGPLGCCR
# [4] = molecular target: T4, panel of 370 protein kinases (Homo sapiens, UniProt Q9NRH2); conditions: 2 h, kinase SNRK; read-out: % Enzyme Activity (relative to DMSO controls)
# T4 construct: purchased Reaction Biology Corporation (assay service)
# T4 sequence (Q9NRH2 whole entry): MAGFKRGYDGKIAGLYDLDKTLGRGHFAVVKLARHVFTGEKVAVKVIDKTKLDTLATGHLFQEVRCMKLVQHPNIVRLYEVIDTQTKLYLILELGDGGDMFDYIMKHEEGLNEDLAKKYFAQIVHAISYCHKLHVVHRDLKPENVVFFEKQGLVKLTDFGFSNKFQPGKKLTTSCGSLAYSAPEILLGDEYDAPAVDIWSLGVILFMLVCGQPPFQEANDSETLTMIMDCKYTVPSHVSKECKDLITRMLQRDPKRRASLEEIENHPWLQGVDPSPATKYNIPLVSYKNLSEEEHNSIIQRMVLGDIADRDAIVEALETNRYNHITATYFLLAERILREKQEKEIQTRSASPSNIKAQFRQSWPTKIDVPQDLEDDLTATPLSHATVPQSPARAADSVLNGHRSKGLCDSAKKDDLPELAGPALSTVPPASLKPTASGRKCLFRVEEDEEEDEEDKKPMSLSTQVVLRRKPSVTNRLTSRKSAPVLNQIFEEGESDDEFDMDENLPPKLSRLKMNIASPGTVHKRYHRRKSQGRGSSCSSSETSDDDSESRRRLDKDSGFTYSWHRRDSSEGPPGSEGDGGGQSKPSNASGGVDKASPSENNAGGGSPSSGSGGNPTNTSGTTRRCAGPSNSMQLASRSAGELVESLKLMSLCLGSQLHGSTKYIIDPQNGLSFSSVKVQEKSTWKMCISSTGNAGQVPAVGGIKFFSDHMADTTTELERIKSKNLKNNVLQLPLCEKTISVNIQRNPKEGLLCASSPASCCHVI
# [5] = molecular target: T5, panel of 370 protein kinases (Homo sapiens, UniProt Q9H2G2); conditions: 2 h, kinase SLK/STK2; read-out: % Enzyme Activity (relative to DMSO controls)
# T5 construct: purchased Reaction Biology Corporation (assay service)
# [6] = molecular target: T6, panel of 370 protein kinases (Homo sapiens, UniProt P15735); conditions: 2 h, kinase PHKg2; read-out: % Enzyme Activity (relative to DMSO controls)
# T6 construct: purchased Reaction Biology Corporation (assay service)
# [7] = molecular target: T7, panel of 370 protein kinases (Homo sapiens, UniProt P00519); conditions: 2 h, kinase ABL1; read-out: % Enzyme Activity (relative to DMSO controls)
# T7 construct: purchased Reaction Biology Corporation (assay service)
# [8] = molecular target: T8, panel of 370 protein kinases (Homo sapiens, UniProt Q13555); conditions: 2 h, kinase CAMK2g; read-out: % Enzyme Activity (relative to DMSO controls)
# T8 construct: purchased Reaction Biology Corporation (assay service)
# [9] = molecular target: T9, panel of 370 protein kinases (Homo sapiens, UniProt Q9BWU1); conditions: kinase CDK19/cyclin C
# T9 construct: purchased Reaction Biology Corporation (assay service)
# T9 sequence (Q9BWU1 whole entry): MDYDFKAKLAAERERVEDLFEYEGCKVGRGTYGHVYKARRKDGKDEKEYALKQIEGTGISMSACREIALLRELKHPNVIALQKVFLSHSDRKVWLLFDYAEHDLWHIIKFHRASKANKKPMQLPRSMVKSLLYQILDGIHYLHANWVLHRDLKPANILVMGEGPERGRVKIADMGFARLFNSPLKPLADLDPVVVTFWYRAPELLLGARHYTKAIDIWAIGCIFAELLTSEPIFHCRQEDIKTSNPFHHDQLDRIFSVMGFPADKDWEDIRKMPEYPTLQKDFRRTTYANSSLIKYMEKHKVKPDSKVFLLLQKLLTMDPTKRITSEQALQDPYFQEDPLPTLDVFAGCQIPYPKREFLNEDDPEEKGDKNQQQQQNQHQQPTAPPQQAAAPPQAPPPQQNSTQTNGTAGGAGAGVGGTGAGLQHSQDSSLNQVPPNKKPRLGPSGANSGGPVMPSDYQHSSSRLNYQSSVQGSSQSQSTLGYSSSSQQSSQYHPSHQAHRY
# [10] = molecular target: T10, panel of 370 protein kinases (Homo sapiens, UniProt P25098); conditions: 2 h, kinase GRK2; read-out: % Enzyme Activity (relative to DMSO controls)
# T10 construct: purchased Reaction Biology Corporation (assay service)
# [11] = molecular target: T11, panel of 370 protein kinases (Homo sapiens, UniProt Q7L7X3); conditions: 2 h, kinase TAOK1; read-out: % Enzyme Activity (relative to DMSO controls)
# T11 construct: purchased Reaction Biology Corporation (assay service)
# [12] = molecular target: T12, panel of 370 protein kinases (Homo sapiens, UniProt P27361); conditions: 2 h, kinase ERK1; read-out: % Enzyme Activity (relative to DMSO controls)
# T12 construct: purchased Reaction Biology Corporation (assay service)
# [13] = molecular target: T13, panel of 370 protein kinases (Homo sapiens, UniProt Q15759); conditions: 2 h, kinase P38b/MAPK11; read-out: % Enzyme Activity (relative to DMSO controls)
# T13 construct: purchased Reaction Biology Corporation (assay service)
# [14] = molecular target: T14, panel of 370 protein kinases (Homo sapiens, UniProt Q13233); conditions: 2 h, kinase MEKK1; read-out: % Enzyme Activity (relative to DMSO controls)
# T14 construct: purchased Reaction Biology Corporation (assay service)
# T14 sequence (Q13233 whole entry): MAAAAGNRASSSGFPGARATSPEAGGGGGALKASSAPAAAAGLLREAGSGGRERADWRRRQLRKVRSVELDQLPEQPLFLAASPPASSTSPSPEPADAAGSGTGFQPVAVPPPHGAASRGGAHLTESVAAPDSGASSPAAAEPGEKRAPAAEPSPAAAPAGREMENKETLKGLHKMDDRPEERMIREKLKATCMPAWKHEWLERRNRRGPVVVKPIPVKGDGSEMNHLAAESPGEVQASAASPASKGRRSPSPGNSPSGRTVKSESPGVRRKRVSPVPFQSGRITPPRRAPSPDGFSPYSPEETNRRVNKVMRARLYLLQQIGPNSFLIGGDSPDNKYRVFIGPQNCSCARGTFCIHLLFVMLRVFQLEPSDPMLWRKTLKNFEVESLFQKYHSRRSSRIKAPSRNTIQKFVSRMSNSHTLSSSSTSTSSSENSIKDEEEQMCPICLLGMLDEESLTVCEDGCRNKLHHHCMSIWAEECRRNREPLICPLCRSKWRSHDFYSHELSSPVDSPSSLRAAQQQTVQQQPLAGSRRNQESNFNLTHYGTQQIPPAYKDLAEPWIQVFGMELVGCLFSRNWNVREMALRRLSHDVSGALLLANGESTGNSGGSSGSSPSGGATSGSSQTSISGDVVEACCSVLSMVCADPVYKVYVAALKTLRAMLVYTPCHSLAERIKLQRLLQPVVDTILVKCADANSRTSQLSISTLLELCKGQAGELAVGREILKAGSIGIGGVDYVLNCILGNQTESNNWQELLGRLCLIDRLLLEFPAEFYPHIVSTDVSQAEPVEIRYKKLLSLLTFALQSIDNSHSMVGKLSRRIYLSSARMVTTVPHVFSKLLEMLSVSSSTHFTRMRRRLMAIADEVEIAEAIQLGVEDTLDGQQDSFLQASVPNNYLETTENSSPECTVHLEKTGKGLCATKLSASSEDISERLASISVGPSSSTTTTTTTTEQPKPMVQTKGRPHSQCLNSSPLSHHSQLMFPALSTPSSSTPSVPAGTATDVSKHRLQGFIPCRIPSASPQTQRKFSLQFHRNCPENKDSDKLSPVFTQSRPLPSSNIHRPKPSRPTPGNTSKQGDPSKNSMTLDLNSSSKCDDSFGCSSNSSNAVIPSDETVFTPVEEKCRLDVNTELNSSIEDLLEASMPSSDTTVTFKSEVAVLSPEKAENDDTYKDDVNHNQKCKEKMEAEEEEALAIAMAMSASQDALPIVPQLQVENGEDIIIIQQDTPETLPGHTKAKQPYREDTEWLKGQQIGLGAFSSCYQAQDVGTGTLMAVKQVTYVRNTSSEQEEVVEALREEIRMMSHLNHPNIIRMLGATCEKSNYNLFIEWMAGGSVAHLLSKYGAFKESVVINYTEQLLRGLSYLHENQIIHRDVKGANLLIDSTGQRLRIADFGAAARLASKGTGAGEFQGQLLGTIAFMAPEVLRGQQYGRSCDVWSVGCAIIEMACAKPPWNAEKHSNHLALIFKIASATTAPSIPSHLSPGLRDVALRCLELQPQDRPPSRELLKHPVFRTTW
# [15] = molecular target: T15, panel of 370 protein kinases (Homo sapiens, UniProt P17948); conditions: 2 h, kinase FLT1/VEGFR1; read-out: % Enzyme Activity (relative to DMSO controls)
# T15 construct: purchased Reaction Biology Corporation (assay service)
# T15 sequence (P17948 27-1338): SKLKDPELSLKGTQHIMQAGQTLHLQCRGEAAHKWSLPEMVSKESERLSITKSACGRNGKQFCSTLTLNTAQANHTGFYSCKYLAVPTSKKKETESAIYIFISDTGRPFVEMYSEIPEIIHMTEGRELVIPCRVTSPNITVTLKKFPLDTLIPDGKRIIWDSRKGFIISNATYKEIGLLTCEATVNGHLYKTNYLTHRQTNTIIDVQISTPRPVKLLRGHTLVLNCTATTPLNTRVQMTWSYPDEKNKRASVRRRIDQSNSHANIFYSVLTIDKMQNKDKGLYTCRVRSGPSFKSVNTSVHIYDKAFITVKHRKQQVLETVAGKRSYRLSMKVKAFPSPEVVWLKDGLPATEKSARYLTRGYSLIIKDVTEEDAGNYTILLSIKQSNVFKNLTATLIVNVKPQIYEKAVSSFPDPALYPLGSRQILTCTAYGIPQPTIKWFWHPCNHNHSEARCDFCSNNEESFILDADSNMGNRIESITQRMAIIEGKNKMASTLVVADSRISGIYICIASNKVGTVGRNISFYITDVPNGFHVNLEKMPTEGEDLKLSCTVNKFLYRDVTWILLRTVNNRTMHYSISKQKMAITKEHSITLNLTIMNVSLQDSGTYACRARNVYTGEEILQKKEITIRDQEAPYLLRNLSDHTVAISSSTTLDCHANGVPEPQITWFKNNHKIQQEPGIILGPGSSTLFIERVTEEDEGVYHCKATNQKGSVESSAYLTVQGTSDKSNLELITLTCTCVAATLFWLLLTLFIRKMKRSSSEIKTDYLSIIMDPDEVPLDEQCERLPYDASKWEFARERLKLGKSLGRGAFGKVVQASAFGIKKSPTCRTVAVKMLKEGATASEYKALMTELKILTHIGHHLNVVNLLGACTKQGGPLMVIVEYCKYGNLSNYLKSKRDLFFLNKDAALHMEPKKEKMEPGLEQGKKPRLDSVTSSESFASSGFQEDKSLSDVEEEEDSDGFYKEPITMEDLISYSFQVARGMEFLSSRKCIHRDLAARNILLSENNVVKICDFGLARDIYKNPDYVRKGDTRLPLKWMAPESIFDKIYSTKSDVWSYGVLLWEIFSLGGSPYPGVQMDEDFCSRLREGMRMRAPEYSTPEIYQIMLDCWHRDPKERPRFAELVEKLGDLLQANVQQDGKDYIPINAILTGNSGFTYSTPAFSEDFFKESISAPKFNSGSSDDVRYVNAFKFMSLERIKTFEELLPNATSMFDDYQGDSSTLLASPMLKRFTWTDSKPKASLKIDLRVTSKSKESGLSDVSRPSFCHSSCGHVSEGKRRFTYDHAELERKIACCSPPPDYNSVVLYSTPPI
# [16] = molecular target: T16, panel of 370 protein kinases (Homo sapiens, UniProt Q02763); conditions: 2 h, kinase TIE2/TEK; read-out: % Enzyme Activity (relative to DMSO controls)
# T16 construct: purchased Reaction Biology Corporation (assay service)
# [17] = molecular target: T17, panel of 370 protein kinases (Homo sapiens, UniProt Q05397); conditions: 2 h, kinase FAK/PTK2; read-out: % Enzyme Activity (relative to DMSO controls)
# T17 construct: purchased Reaction Biology Corporation (assay service)
# [18] = molecular target: T18, panel of 370 protein kinases (Homo sapiens, UniProt P41743); conditions: 2 h, kinase PKCiota; read-out: % Enzyme Activity (relative to DMSO controls)
# T18 construct: purchased Reaction Biology Corporation (assay service)
# [19] = molecular target: T19, panel of 370 protein kinases (Homo sapiens, UniProt Q9NR20); conditions: 2 h, read-out: % Enzyme Activity (relative to DMSO controls), kinase DYRK4
# T19 construct: purchased Reaction Biology Corporation (assay service)
# T19 sequence (Q9NR20 whole entry): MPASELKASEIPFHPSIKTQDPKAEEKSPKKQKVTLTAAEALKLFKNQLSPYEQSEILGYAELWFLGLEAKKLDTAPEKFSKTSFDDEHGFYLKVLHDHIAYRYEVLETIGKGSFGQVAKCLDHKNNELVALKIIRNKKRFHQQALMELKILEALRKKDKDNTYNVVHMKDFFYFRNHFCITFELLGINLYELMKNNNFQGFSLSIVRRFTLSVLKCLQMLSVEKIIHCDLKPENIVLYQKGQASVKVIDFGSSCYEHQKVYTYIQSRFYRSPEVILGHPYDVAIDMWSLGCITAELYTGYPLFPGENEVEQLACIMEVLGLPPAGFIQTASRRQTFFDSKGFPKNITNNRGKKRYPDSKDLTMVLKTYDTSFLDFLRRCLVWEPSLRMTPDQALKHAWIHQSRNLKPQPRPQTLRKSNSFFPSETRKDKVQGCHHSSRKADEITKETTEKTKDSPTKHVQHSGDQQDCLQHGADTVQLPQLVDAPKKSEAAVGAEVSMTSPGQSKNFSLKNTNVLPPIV
# [20] = molecular target: T20, panel of 370 protein kinases (Homo sapiens, UniProt Q9H1R3); conditions: 2 h, kinase MLCK2/MYLK2; read-out: % Enzyme Activity (relative to DMSO controls)
# T20 construct: purchased Reaction Biology Corporation (assay service)
# [21] = molecular target: T21, panel of 370 protein kinases (Homo sapiens, UniProt Q56UN5); conditions: 2 h, kinase YSK4/MAP3K19; read-out: % Enzyme Activity (relative to DMSO controls)
# T21 construct: purchased Reaction Biology Corporation (assay service)
smiles,measurement,setting,value
CCN1CCN(C(=O)c2ccc(Nc3ncc(F)c(-c4ccc5nc(N(C)C)sc5c4)n3)nc2)CC1 [YK-2-69],remaining activity at 1 µM,[1],94%
same,remaining activity at 1 µM,[2],48.3%
same,% Enzyme Activity (relative to DMSO controls),[3],84.96% and 83.74%
same,remaining activity at 1 µM,[4],95.4%
same,remaining activity at 1 µM,[5],94.5%
same,remaining activity at 1 µM,[6],97.9%
same,remaining activity at 1 µM,[7],85%
same,remaining activity at 1 µM,[8],86%
same,% Enzyme Activity (relative to DMSO controls),[9],59.42% and 58.05%
same,remaining activity at 1 µM,[10],112%
same,remaining activity at 1 µM,[11],108%
same,remaining activity at 1 µM,[12],101%
same,remaining activity at 1 µM,[13],94.9%
same,remaining activity at 1 µM,[14],99.7%
same,remaining activity at 1 µM,[15],101%
same,remaining activity at 1 µM,[16],87.6%
same,remaining activity at 1 µM,[17],95.9%
same,remaining activity at 1 µM,[18],84.8%
same,remaining activity at 1 µM,[19],50%
same,remaining activity at 1 µM,[20],78.7%
same,remaining activity at 1 µM,[21],97.8%

# — publication PMC9133015 (Nature Communications, 2022)
